Data reported in ChEMBL document CHEMBL1146332, “Parallel solid synthesis of inhibitors of the essential cell division FtsZ enzyme as a new potential class of antibacterials” (Bioorg Med Chem, 2007).
The source made the active and inactive calls. No cut-off for these calls is given here.

Experiments:
Staphylococcus aureus = experiment: Antibacterial activity against Staphylococcus aureus ATCC 25923 at 20 g/L by disc diffusion method; assay type: functional; conditions: for zone of inhibition at 20000 µg/mL: read-out: IZ
Escherichia coli = experiment: Antibacterial activity against Escherichia coli ATCC 25922 by disc diffusion method; assay type: functional, organism-based
[1] = target: T1, Cell division protein FtsZ (Pseudomonas aeruginosa (strain ATCC 15692 / PAO1 / 1C / PRS 101 / LMG12228), UniProt P47204); experiment: Inhibition of Pseudomonas aeruginosa FtsZ GTPase activity by spectrophotometric assay
T1 sequence (P47204 whole entry): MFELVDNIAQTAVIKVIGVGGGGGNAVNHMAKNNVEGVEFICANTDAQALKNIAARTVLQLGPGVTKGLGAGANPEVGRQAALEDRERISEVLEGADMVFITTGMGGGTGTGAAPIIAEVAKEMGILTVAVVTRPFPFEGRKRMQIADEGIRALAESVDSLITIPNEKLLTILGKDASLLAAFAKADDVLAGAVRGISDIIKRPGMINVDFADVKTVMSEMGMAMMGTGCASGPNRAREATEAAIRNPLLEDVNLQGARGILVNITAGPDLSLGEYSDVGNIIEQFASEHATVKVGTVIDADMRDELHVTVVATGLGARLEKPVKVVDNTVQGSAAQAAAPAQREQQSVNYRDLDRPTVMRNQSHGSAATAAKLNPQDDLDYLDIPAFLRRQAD

Row | IC50 [1] [µM] | Compound | Activity (Staphylococcus aureus) | Activity (Escherichia coli) | zone of inhibition at 20000 µg/mL (Staphylococcus aureus) [mm]
1 | 2000 | Nc1nc(Cl)c2ncn(C[C@H](NC(=O)Cc3ccccc3)C(=O)O)c2n1 | inactive | inactive | –
2 | 600 | C=CCNC(=O)[C@H](Cn1cnc2c(Cl)nc(N)nc21)NS(C)(=O)=O | – | inactive | 28
3 | 1700 | C=CCNC(=O)[C@H](Cn1cnc2c(Cl)nc(N)nc21)NS(=O)(=O)c1ccc(C)cc1 | inactive | inactive | –
4 | 1800 | CCCNC(=O)[C@H](Cn1cnc2c(Cl)nc(N)nc21)NC(=O)N[C@H](C)c1ccccc1 | – | inactive | 11
5 | 2600 | CCCNC(=O)[C@H](Cn1cnc2c(Cl)nc(N)nc21)NS(=O)(=O)c1ccc(C)cc1 | – | inactive | 11
6 | 1200 | Nc1nc(Cl)c2ncn(C[C@H](NS(=O)(=O)c3ccccc3)C(=O)O)c2n1 | inactive | inactive | –
7 | 700 | CCCNC(=O)[C@H](Cn1cnc2c(Cl)nc(N)nc21)NS(C)(=O)=O | – | inactive | 15
8 | 450 | Nc1nc(Cl)c2ncn(C[C@H](NC(=O)Nc3ccccc3)C(=O)O)c2n1 | – | inactive | 10
9 | 1800 | C=CCNC(=O)[C@H](Cn1cnc2c(Cl)nc(N)nc21)NC(=O)N[C@H](C)c1ccccc1 | inactive | inactive | –
10 | – | NC[C@H]1O[C@H](O[C@H]2[C@H](O)[C@@H](O[C@H]3O[C@H](CO)[C@@H](O)[C@H](N)[C@H]3O)[C@H](N)C[C@@H]2N)[C@H](O)[C@@H](O)[C@@H]1O | – | inactive | –
